Source: US20140162942A1, “INHIBITION OF CYP3A DRUG METABOLISM” (priority 2010, published 2014)
Entries after “also recorded” stand apart in the source; their conditions may differ. Like-named read-outs stand apart in the source and are kept apart here.

Experiments:
CYP2D6 = target: T1, CYP2D6 (Homo sapiens, UniProt P10635); assay: CYP2D6 inhibition, dextromethorphan O-demethylation in human liver microsomes; type: in vitro ADME; conditions: for Potential for Time-Dep. Inhibition: comparison with and without 30-minute pre-incubation; for inhibition at 5 min, 100 µM: human, pH 7.4, probe dextromethorphan (O-demethylation)
T1 construct: Pooled human liver microsomes (from sixteen individuals) were used as the source of enzymes; tissue XenoTech, LLC; host or cells: human liver microsomes, pool of sixteen donors
T1 sequence (P10635 whole entry): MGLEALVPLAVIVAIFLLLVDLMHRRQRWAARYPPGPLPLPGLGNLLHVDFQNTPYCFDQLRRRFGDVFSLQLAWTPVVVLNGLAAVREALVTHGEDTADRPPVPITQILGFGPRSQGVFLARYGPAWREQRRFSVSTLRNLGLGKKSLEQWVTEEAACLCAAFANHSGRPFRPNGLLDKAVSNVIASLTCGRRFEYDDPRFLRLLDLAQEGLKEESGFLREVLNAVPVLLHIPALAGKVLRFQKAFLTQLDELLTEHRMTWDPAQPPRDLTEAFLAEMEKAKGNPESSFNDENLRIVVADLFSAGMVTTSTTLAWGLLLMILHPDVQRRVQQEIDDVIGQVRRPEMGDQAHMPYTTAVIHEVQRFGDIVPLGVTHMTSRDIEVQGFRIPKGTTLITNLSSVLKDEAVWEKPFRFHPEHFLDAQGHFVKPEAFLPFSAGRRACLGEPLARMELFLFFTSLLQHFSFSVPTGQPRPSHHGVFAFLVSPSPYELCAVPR
Experimental: (§1) The basis for many of the following incubation conditions is described in the following references: Madan, et al., 2002,^(1) Huang, 2004,^(3) Ogilvie, et al., 2006,^(6) Pearce, et al., 1996,^(7) Tucker, et al., 2001,^(4) and Walsky and Obach, 2004.^(5) In general, incubations were conducted at approximately 37° C. in 400-μL incubation mixtures (target pH 7.4) containing high purity water, potassium phosphate buffer (50 mM), MgCl2 (3 mM), EDTA (1 mM), an NADPH-generating system [always the mixture of the following: NADP (1 mM), glucose-6-phosphate (5 mM), glucose-6-phosphate dehydrogenase (1 Unit/mL)], and marker substrate at the final concentrations indicated. Pooled human liver microsomes (from sixteen individuals) were used as the source of enzymes (Section 1.3.1.2). The concentrations of marker substrates were based on the Km and Vmax data that were determined previously (data not shown).
(§2) Due to the possibility that boceprevir may bind to microsomal protein or lipids, an attempt was made to design these experiments such that, in as many cases as possible, the microsomal protein, incubation time, and phosphate buffer concentration were 0.1 mg/mL, 5 minutes and 50 mM, respectively, for assays performed with human liver microsomes (Table 1). […] Since it is not imperative that the concentration of marker substrates be exactly equal to Km, the marker substrate concentrations were rounded up or down, as applicable, to simplify the experimental design (data not shown). […] Thus, the final incubation concentration of phenacetin was 60 μM (Table 1).
(§3) The ability of boceprevir to inhibit the CYP enzymes listed in Section 1.2.1 was investigated with a pool of sixteen individual human liver microsomal samples at the concentrations indicated in Table 1. Aliquots of the stock and/or working solutions of boceprevir were manually added to buffer mixtures containing the components described in Section 1.3.21. Incubation mixtures were prepared in bulk to obviate the need for directly pipetting very small volumes (i.e., 1 μL or less). Incubations containing no boceprevir (0 μM) contained the vehicle used to dissolve boceprevir (i.e., 1% methanol).
(§4) The Tecan liquid handling system conducted all remaining incubation steps, with the exception of the centrifugation. Aliquots of the buffer mixtures were then automatically added to 96-well plates at the appropriate locations in duplicate. Aliquots of a substrate working solution were added to the 96-well plates, prior to initiating reactions, to give the final concentrations indicated in Table 1. Reactions were initiated with the addition of an aliquot of an NADPH-generating system. Reactions were automatically terminated at approximately 5 minutes, by the addition of the appropriate internal standard (Table 5) and stop reagent; acetonitrile. Precipitated protein was removed by centrifugation (920 g for 10 minutes at 10° C.). Standards and quality control samples were similarly prepared with the addition of authentic metabolite standards.
(§5) To examine its ability to act as a time-dependent inhibitor, boceprevir (at the same concentrations used to evaluate direct inhibition) was pre-incubated at 37±1° C., in duplicate, with human liver microsomes and an NADPH-generating system for approximately 30 minutes. This pre-incubation allowed for the generation of intermediates that could inhibit human CYP enzymes. The pre-incubations were initiated with the addition of an aliquot of an NADPH-generating system. […] Reactions were automatically terminated, at approximately 5 minutes, by the addition of the appropriate internal standard (Table 5) and stop reagent; acetonitrile. Precipitated protein was removed by centrifugation (920 g for 10 minutes at 10° C.). Incubations containing no boceprevir (0 μM) and incubations that contained boceprevir but were not pre-incubated, served as negative controls.

CYP2C8 = target: T2, CYP2C8 (Homo sapiens, UniProt P10632); assay: CYP2C8 inhibition, amodiaquine N-dealkylation in human liver microsomes; type: in vitro ADME; conditions: for Potential for Time-Dep. Inhibition: comparison with and without 30-minute pre-incubation
T2 construct: Pooled human liver microsomes (from sixteen individuals) were used as the source of enzymes; tissue XenoTech, LLC; host or cells: human liver microsomes, pool of sixteen donors
T2 sequence (P10632 1-490): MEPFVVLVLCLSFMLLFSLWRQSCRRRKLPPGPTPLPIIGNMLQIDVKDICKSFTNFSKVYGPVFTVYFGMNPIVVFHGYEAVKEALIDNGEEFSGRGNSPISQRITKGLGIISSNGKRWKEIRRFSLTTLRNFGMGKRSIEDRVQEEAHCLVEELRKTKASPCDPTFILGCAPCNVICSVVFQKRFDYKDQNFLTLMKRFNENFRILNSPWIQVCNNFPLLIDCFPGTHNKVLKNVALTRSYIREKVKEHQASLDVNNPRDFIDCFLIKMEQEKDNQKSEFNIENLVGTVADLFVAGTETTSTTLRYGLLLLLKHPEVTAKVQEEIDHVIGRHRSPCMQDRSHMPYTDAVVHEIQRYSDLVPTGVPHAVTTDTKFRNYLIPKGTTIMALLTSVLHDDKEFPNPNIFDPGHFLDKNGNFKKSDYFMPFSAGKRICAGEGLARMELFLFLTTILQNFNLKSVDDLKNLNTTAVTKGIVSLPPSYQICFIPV
Experimental: as §1, §2, §3, §4
(§6) To examine its ability to act as a time-dependent inhibitor, boceprevir (at the same concentrations used to evaluate direct inhibition) was pre-incubated at 37±1° C., in duplicate, with human liver microsomes and an NADPH-generating system for approximately 30 minutes. This pre-incubation allowed for the generation of intermediates that could inhibit human CYP enzymes. The pre-incubations were initiated with the addition of an aliquot of an NADPH-generating system. […]

CYP3A4/5 [1] = assay: CYP3A4/5 inhibition, midazolam 1′-hydroxylation in human liver microsomes (IC50 and Ki); type: in vitro ADME; conditions: for Potential for Time-Dep. Inhibition: comparison with and without 30-minute pre-incubation
Experimental: as §1, §2, §3, §4, §5

CYP3A4/5 [2] = assay: CYP3A4/5 inhibition, testosterone 6β-hydroxylation in human liver microsomes; type: in vitro ADME; conditions: for Potential for Time-Dep. Inhibition: comparison with and without 30-minute pre-incubation; for IC50 at 5 min / inhibition at 5 min, 100 µM: human, pooled human liver microsomes, pH 7.4, probe testosterone (6β-hydroxylation)
Experimental: as §1, §2, §3, §4, §5

CYP3A4/5 [3] = assay: NADPH dependence and effects of dilution of time-dependent inhibition of CYP3A4/5 (testosterone 6β-hydroxylation and midazolam 1′-hydroxylation); type: in vitro ADME, human; conditions: 3 μM
CYP2C9 = target: T3, CYP2C9 (Homo sapiens, UniProt P11712); assay: CYP2C9 inhibition, diclofenac 4′-hydroxylation in human liver microsomes; type: in vitro ADME; conditions: for Potential for Time-Dep. Inhibition: comparison with and without 30-minute pre-incubation
T3 construct: Pooled human liver microsomes (from sixteen individuals) were used as the source of enzymes; tissue XenoTech, LLC; host or cells: human liver microsomes, pool of sixteen donors
T3 sequence (P11712 whole entry): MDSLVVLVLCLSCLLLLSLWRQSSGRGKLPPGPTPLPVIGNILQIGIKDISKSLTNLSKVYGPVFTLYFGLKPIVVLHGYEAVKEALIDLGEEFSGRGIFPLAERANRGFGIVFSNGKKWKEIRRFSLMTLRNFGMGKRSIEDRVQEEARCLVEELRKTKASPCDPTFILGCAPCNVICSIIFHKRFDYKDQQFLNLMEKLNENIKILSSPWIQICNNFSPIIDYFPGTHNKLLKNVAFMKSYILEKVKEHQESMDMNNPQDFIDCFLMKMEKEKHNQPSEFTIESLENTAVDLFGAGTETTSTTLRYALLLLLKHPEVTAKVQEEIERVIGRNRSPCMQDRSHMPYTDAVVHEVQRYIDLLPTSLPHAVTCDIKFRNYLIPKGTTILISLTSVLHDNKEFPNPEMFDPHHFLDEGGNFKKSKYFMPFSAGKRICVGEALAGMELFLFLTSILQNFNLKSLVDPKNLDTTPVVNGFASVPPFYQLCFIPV
Experimental: as §1, §2, §3, §4, §6

[4] = direct inhibition, zero-minute pre-incubation, pooled human liver microsomes
[5] = time-dependent inhibition, 30-minute pre-incubation

CC(C)(C)NC(=O)NC(C(=O)N1CC2C([C@H]1C(=O)NC(CC1CCC1)C(=O)C(N)=O)C2(C)C)C(C)(C)C (stereo partly drawn) [Boceprevir, (1R,2S,5S)—N-[(2Ξ)-4-amino-1-cyclobutyl-3,4-dioxobutan-2-yl]-3-{(2S)-2-[(tert-butylcarbamoyl)amino]-3,3-dimethylbutanoyl}-6,6-dimethyl-3-azabicyclo[3.1.0]hexane-2-carboxamide]
Potential for Time-Dep. Inhibition (CYP2D6): little or no
Potential for Time-Dep. Inhibition (CYP2D6; listed as boceprevir): no discernable time-dependent inhibition
IC50 (CYP2D6; [4]): > 100 µM
inhibition at 5 min, 100 µM (CYP2D6; pooled human liver microsomes, direct inhibition, zero-minute pre-incubation, read-out: Max. Inhib. at 100 μM): 45%
inhibition at 5 min, 100 µM (CYP2D6; pooled human liver microsomes, time-dependent inhibition, 30-minute pre-incubation, read-out: Maximum Inhibition at 100 μM): 30%
IC50 (CYP2D6; [5]): > 100 µM
Potential for Time-Dep. Inhibition (CYP2C8): little or no
Potential for Time-Dep. Inhibition (CYP2C8; listed as boceprevir): no discernable time-dependent inhibition
IC50 (CYP2C8; [4]): > 100 µM
inhibition at 5 min, 100 µM (CYP2C8; human, pooled human liver microsomes, pH 7.4, probe amodiaquine (N-dealkylation), direct inhibition, zero-minute pre-incubation, read-out: Max. Inhib. at 100 μM): 25%
IC50 (CYP2C8; [5]): > 100 µM
Potential for Time-Dep. Inhibition (CYP3A4/5 [1]): yes^c
Potential for Time-Dep. Inhibition (CYP3A4/5 [1]; listed as boceprevir): caused time-dependent inhibition
Type of Inhibition (CYP3A4/5 [1]; direct inhibition): competitive; also recorded: competit
Type of Inhibition (CYP3A4/5 [1]; direct inhibition, listed as boceprevir): competitive
Ki at 5 min (CYP3A4/5 [1]; human, pooled human liver microsomes, pH 7.4, probe midazolam (1′-hydroxylation), direct inhibition): 7.7 µM
IC50 at 5 min (CYP3A4/5 [1]; human, pooled human liver microsomes, pH 7.4, probe midazolam (1′-hydroxylation), direct inhibition, zero-minute pre-incubation): 11 µM
inhibition at 5 min, 100 µM (CYP3A4/5 [1]; human, pooled human liver microsomes, pH 7.4, probe midazolam (1′-hydroxylation), direct inhibition, zero-minute pre-incubation, read-out: Max. Inhib. at 100 μM): 91%
IC50 at 5 min (CYP3A4/5 [1]; human, pooled human liver microsomes, pH 7.4, probe midazolam (1′-hydroxylation), time-dependent inhibition, 30-minute pre-incubation): 0.97 µM
inhibition at 5 min, 100 µM (CYP3A4/5 [1]; human, pooled human liver microsomes, pH 7.4, probe midazolam (1′-hydroxylation), time-dependent inhibition, 30-minute pre-incubation, read-out: Maximum Inhibition at 100 μM): 99%
Potential for Time-Dep. Inhibition (CYP3A4/5 [2]): yes^c
Potential for Time-Dep. Inhibition (CYP3A4/5 [2]; listed as boceprevir): caused time-dependent inhibition
IC50 at 5 min (CYP3A4/5 [2]; direct inhibition, zero-minute pre-incubation): > 100 µM
inhibition at 5 min, 100 µM (CYP3A4/5 [2]; direct inhibition, zero-minute pre-incubation, read-out: Max. Inhib. at 100 μM): 41%
IC50 at 5 min (CYP3A4/5 [2]; [5]): 2.3 µM
inhibition at 5 min, 100 µM (CYP3A4/5 [2]; time-dependent inhibition, 30-minute pre-incubation, read-out: Maximum Inhibition at 100 μM): 95%
Resistance to dilution of the increase in inhibition upon pre-incubation (CYP3A4/5 [3]; 25-fold dilution after pre-incubation): did not appear to be resistant to dilution
NADPH dependence of the increase in inhibition upon pre-incubation (CYP3A4/5 [3]; pre-incubation 0, 15 and 30 minutes with and without NADPH): did require NADPH
Potential for Time-Dep. Inhibition (CYP2C9): little or no
Potential for Time-Dep. Inhibition (CYP2C9; listed as boceprevir): no discernable time-dependent inhibition
IC50 (CYP2C9; [4]): > 100 µM
inhibition at 5 min, 100 µM (CYP2C9; human, pooled human liver microsomes, pH 7.4, probe diclofenac (4′-hydroxylation), direct inhibition, zero-minute pre-incubation, read-out: Max. Inhib. at 100 μM): 3.6%
IC50 (CYP2C9; [5]): > 100 µM
